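Interpolation was linear, between the two tested concentrations surrounding the appropriate level; five concentrations were tested over 48 hours in 96-well plates. TGI denotes the concentration required for complete inhibition of growth.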

Among the test systems are SK-MEL-5 melanoma; UACC-257 melanoma; HT29 colon; CAKI-1 renal; HL-60(TB) leukemia; NCI-H522 lung; EKVX NSCLC; SNB-19 CNS; ACHN renal; LOX IMVI melanoma; M14 melanoma; MDA-N; MDA-MB-435; DU-145 prostate; OVCAR-3 ovarian.
What all share (assay): inhibition of tumour cell growth, NCI panel, 48 h

For `COC1C=COC2(C)Oc3c(C)c(O)c4c(O)c(c(/C=N/N5CCN(N)CC5)c(O)c4c3C2=O)NC(=O)C(C)=CC=CC(C)C(O)C(C)C(O)C(C)C(OC(C)=O)C1C` (stereo unspecified), the TGI with SK-MEL-5 melanoma was over 100 µM; in the assay on UACC-257 melanoma, over 100 µM; with HT29 colon, over 100 µM; in the assay with CAKI-1 renal, over 100 µM; with HL-60(TB) leukemia, over 100 µM; with NCI-H522 lung it was 78.2 µM. The TGI with EKVX NSCLC, in the assay on SNB-19 CNS, in the assay with ACHN renal, in the assay with LOX IMVI melanoma and in the assay on M14 melanoma was over 100 µM in each case.
Regarding `O=C1NC(=O)C2(CCCCCC2)N1`, the TGI in the assay on SK-MEL-5 melanoma, with UACC-257 melanoma, with HT29 colon, with CAKI-1 renal, with MDA-N and in the assay with NCI-H522 lung was over 100 µM each time. Further, the TGI in the assay on EKVX NSCLC, with SNB-19 CNS, with MDA-MB-435, in the assay on DU-145 prostate, in the assay on ACHN renal and with LOX IMVI melanoma was over 100 µM in each case. In addition, the TGI in the assay with OVCAR-3 ovarian and with M14 melanoma was over 100 µM throughout.
For the compound `Nc1cc(N2CCCC2)nc(=O)n1-c1ccccc1`, the TGI in the assay on SK-MEL-5 melanoma, with UACC-257 melanoma, in the assay on HT29 colon, in the assay with CAKI-1 renal, in the assay with HL-60(TB) leukemia and in the assay with NCI-H522 lung was over 100 µM in each case. Further, the TGI in the assay on EKVX NSCLC, in the assay on SNB-19 CNS, in the assay with MDA-MB-435, with DU-145 prostate, in the assay with ACHN renal and in the assay on LOX IMVI melanoma was over 100 µM throughout. Besides, the TGI in the assay with M14 melanoma was over 100 µM.
For `Oc1ccc(N=C2CCC(=C(c3ccccc3)c3ccc(Nc4ccc(O)cc4)cc3)CC2)cc1`, the TGI in the assay with SK-MEL-5 melanoma, in the assay on UACC-257 melanoma, in the assay with HT29 colon, in the assay on CAKI-1 renal, with NCI-H522 lung and in the assay on SNB-19 CNS was over 100 µM throughout. In addition, the TGI with MDA-MB-435, in the assay on DU-145 prostate, in the assay with ACHN renal, in the assay with LOX IMVI melanoma and with M14 melanoma was over 100 µM throughout.
With `C=C(C)[C@@]1(OC(=O)c2cc([N+](=O)[O-])cc([N+](=O)[O-])c2)C[C@@H]2CCCC[C@@H]21`, the TGI in the assay on UACC-257 melanoma, with HT29 colon, in the assay on CAKI-1 renal, in the assay on MDA-N, in the assay with HL-60(TB) leukemia and in the assay on NCI-H522 lung was over 100 µM each time. Moreover, the TGI in the assay with EKVX NSCLC, with SNB-19 CNS, in the assay with DU-145 prostate, with ACHN renal, with LOX IMVI melanoma and with M14 melanoma was over 100 µM each time.
As to `CC(C)(C)OC(=O)NCCc1cccc2c1oc1c(CCC(=O)O)cccc12`, the TGI with SK-MEL-5 melanoma, with UACC-257 melanoma, with HT29 colon, with CAKI-1 renal, with HL-60(TB) leukemia and in the assay on NCI-H522 lung was over 100 µM in each case. The TGI with SNB-19 CNS, with ACHN renal, in the assay with LOX IMVI melanoma, with OVCAR-3 ovarian and in the assay on M14 melanoma was over 100 µM throughout.
Regarding `CCOc1ccc(N/C(Cl)=C(Cl)\C(=C(\Nc2ccc(OCC)cc2)n2nnc3ccccc32)[N+](=O)[O-])cc1`, the TGI in the assay with SK-MEL-5 melanoma was 24.5 µM; with UACC-257 melanoma, 28.6 µM; in the assay with HT29 colon it was 3.46 µM; with CAKI-1 renal, 3.49 µM; with MDA-N it was 13.2 µM; in the assay with NCI-H522 lung, 2.86 µM. Moreover, the TGI with EKVX NSCLC was 31.3 µM; in the assay on SNB-19 CNS, 34.4 µM; in the assay on MDA-MB-435, 23.7 µM; in the assay on DU-145 prostate, 46.8 µM; in the assay on ACHN renal, 15.1 µM; in the assay on LOX IMVI melanoma, 3.96 µM. Further, the values for the TGI in the assay on OVCAR-3 ovarian and in the assay with M14 melanoma were 20.3 µM and 17.3 µM, respectively.
As to `CCOC(=O)[C@@]12C[C@](/C=C/OC)(O[Si](C)(C)C)[C@@]13c1cc(OC)c(OC)cc1CCN3C(=O)C2O` (stereo partly specified), the TGI with SK-MEL-5 melanoma, in the assay with UACC-257 melanoma, in the assay with HT29 colon, in the assay on CAKI-1 renal, in the assay with MDA-N and with EKVX NSCLC was over 100 µM throughout. The TGI in the assay with SNB-19 CNS, in the assay with MDA-MB-435, with DU-145 prostate, in the assay on ACHN renal, in the assay on LOX IMVI melanoma and in the assay on OVCAR-3 ovarian was over 100 µM in each case. In the assay on M14 melanoma, this compound came in with a TGI of over 100 µM.
`CN(N)c1cc(=O)[nH]c(=O)[nH]1`: the TGI in the assay on SK-MEL-5 melanoma, with UACC-257 melanoma, in the assay on HT29 colon, in the assay with CAKI-1 renal, in the assay on MDA-N and in the assay on HL-60(TB) leukemia was over 100 µM throughout. The TGI in the assay on NCI-H522 lung, in the assay with EKVX NSCLC, in the assay with SNB-19 CNS, in the assay on DU-145 prostate, in the assay on ACHN renal and with LOX IMVI melanoma was over 100 µM throughout. In the assay with OVCAR-3 ovarian, this compound gave a TGI of over 100 µM.
`CC(=O)O[C@H]1/C(=C/c2ccncc2)C[C@H]2[C@@H]3CC=C4C[C@@H](N5CCCC5)CC[C@]4(C)[C@H]3CC[C@]12C`: the TGI with SK-MEL-5 melanoma stood at 21.1 µM; with UACC-257 melanoma, 6.42 µM; in the assay with HT29 colon it was 14.1 µM; in the assay on CAKI-1 renal it was 27.9 µM; in the assay on HL-60(TB) leukemia, 26.1 µM; with NCI-H522 lung, 34.9 µM. For the same compound, the TGI with EKVX NSCLC came to 29 µM; in the assay on SNB-19 CNS it was 31.9 µM; with MDA-MB-435 it was 25.8 µM; in the assay on DU-145 prostate, 28 µM; in the assay on ACHN renal, 27.7 µM; with LOX IMVI melanoma it was 6.82 µM. The TGI was determined as 45.9 µM in the assay on OVCAR-3 ovarian and 23.8 µM with M14 melanoma.

For the origin of these results see PubChem BioAssay (NCI).
